Results: patent US9682974B2, “Heteroaryl substituted pyrazoles” (BAYER PHARMA AKTIENGESELLSCHAFT, priority 2013, dated 2017)
pIC50: −log10 of the molar value.

How the values were obtained:
[1] = tested on: HeLa human cervical cancer cell line; test: Proliferation assay (HeLa cell line), crystal violet staining; type: cell-based; conditions: 96 h, HeLa cells, 4 days incubation, read-out: Biological Assay 2: Proliferation assay (HeLa cell line) median IC50
Description: Cultivated tumor cells (cells were ordered from ATCC) were plated at a density of 3000 cells/well in a 96-well multititer plate in 200 μL of growth medium supplemented 10% fetal calf serum. After 24 hours, the cells of one plate (zero-point plate) were stained with crystal violet (see below), while the medium of the other plates was replaced by fresh culture medium (200 μL), to which the test substances were added in various concentrations (0 μM, as well as in the range of 0.001-10 μM; the final concentration of the solvent dimethyl sulfoxide was 0.5%). The cells were incubated for 4 days in the presence of test substances. Cell proliferation was determined by staining the cells with crystal violet: the cells were fixed by adding 20 μL/measuring point of an 11% glutaric aldehyde solution for 15 minutes at room temperature. After three washing cycles of the fixed cells with water, the plates were dried at room temperature. The cells were stained by adding 100 μL/measuring point of a 0.1% crystal violet solution (pH 3.0). After three washing cycles of the stained cells with water, the plates were dried at room temperature. The dye was dissolved by adding 100 μL/measuring point of a 10% acetic acid solution. Absorbtion was determined by photometry at a wavelength of 595 nm. The change of cell number, in percent, was calculated by normalization of the measured values to the absorbtion values of the zero-point plate (=0%) and the absorbtion of the untreated (0 μm) cells (=100%). The IC50 values were determined by means of a 4 parameter fit.

[2] = target: T1, catalytic domain of human Bub1 (amino acids 704-1085) (Homo sapiens, UniProt O43683); test: Bub1 kinase assay (TR-FRET); type: biochemical; conditions: 10 μM ATP, 1 μM peptide substrate, read-out: Biological Assay 1: Bub1 kinase assay median IC50
T1 construct: catalytic domain of human Bub1 (amino acids 704-1085); His6 (N); made in house; host or cells: Hi5 insect cells
Description: Bub1-inhibitory activities of compounds described in the present invention were quantified using a time-resolved fluorescence energy transfer (TR-FRET) kinase assay which measures phosphorylation of the synthetic peptide Biotin-Ahx-VLLPKKSFAEPG (SEQ ID No. 1) (C-terminus in amide form), purchased from e.g. Biosyntan (Berlin, Germany) by the (recombinant) catalytic domain of human Bub1 (amino acids 704-1085), expressed in Hi5 insect cells with an N-terminal His6-tag and purified by affinity- (Ni-NTA) and size exclusion chromatography.
In a typical assay 11 different concentrations of each compound (0.1 nM, 0.33 nM, 1.1 nM, 3.8 nM, 13 nM, 44 nM, 0.15 μM, 0.51 μM, 1.7 μM, 5.9 μM and 20 μM) were tested in duplicate within the same microtiter plate. To this end, 100-fold concentrated compound solutions (in DMSO) were previously prepared by serial dilution (1:3.4) of 2 mM stocks in a clear low volume 384-well source microtiter plate (Greiner Bio-One, Frickenhausen, Germany), from which 50 nL of compounds were transferred into a black low volume test microtiter plate from the same supplier. Subsequently, 2 μL of Bub1 (the final concentration of Bub1 was adjusted depending on the activity of the enzyme lot in order to be within the linear dynamic range of the assay: typically ˜200 ng/mL were used) in aqueous assay buffer [50 mM Tris/HCl pH 7.5, 10 mM magnesium chloride (MgCl2), 200 mM potassium chloride (KCl), 1.0 mM dithiothreitol (DTT), 0.1 mM sodium ortho-vanadate, 1% (v/v) glycerol, 0.01% (w/v) bovine serum albumine (BSA), 0.005% (v/v) Trition X-100 (Sigma), 1× Complete EDTA-free protease inhibitor mixture (Roche)] were added to the compounds in the test plate and the mixture was incubated for 15 min at 22° C. to allow pre-equilibration of the putative enzyme-inhibitor complexes before the start of the kinase reaction, which was initiated by the addition of 3 μL 1.67-fold concentrated solution (in assay buffer) of adenosine-tri-phosphate (ATP, 10 μM final concentration) and peptide substrate (1 μM final concentration). The resulting mixture (5 μL final volume) was incubated at 22° C. during 60 min., and the reaction was stopped by the addition of 5 μL of an aqueous EDTA-solution (50 mM EDTA, in 100 mM HEPES pH 7.5 and 0.2% (w/v) bovine serum albumin) which also contained the TR-FRET detection reagents (0.2 μM streptavidin-XL665 [Cisbio Bioassays, Codolet, France] and 1 nM anti-phosho-Serine antibody [Merck Millipore, cat. #35-001] and 0.4 nM LANCE EU-W1024 labeled anti-mouse IgG antibody [Perkin-Elmer, product no. AD0077, alternatively a Terbium-cryptate-labeled anti-mouse IgG antibody from Cisbio Bioassays can be used]). The stopped reaction mixture was further incubated 1 h at 22° C. in order to allow the formation of complexes between peptides and detection reagents. Subsequently, the amount of product was evaluated by measurement of the resonance energy transfer from the Eu-chelate-antibody complex recognizing the Phosphoserine residue to the streptavidin-XL665 bound to the biotin moiety of the peptide. To this end, the fluorescence emissions at 620 nm and 665 nm after excitation at 330-350 nm were measured in a TR-FRET plate reader, e.g. a Rubystar or Pherastar (both from BMG Labtechnologies, Offenburg, Germany) or a Viewlux (Perkin-Elmer) and the ratio of the emissions (665 nm/622 nm) was taken as indicator for the amount of phosphorylated substrate. The data were normalised using two sets of (typically 32-) control wells for high- (=enzyme reaction without inhibitor=0%=Minimum inhibition) and low- (=all assay components without enzyme=100%=Maximum inhibition) Bub1 activity. […] values were calculated by fitting the normalized inhibition data to a 4-parameter logistic equation (Minimum, Maximum, IC50, Hill; Y=Max+(Min−Max)/(1+(X/IC50)Hill)).

T1 sequence (O43683 704-1085): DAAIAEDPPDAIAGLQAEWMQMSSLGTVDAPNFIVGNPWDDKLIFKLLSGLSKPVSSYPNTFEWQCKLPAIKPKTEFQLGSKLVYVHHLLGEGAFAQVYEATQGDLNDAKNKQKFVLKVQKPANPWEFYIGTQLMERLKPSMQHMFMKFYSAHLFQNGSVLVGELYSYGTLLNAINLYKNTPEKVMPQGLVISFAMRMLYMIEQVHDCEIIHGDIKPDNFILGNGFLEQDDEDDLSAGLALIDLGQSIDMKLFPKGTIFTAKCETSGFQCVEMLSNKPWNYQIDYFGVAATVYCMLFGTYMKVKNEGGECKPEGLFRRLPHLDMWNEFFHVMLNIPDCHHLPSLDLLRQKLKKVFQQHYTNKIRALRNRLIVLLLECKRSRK

Row | SMILES | pIC50 [1] | pIC50 [2]
1 | CCOc1cc(F)c(Cn2nc(-c3nc(Nc4ccncc4)n(CCOC)n3)c(C)c2C2CC2)c(F)c1 [Example 2-3-2, N-{3-[5-cyclopropyl-1-(4-ethoxy-2,6-difluorobenzyl)-4-methyl-1H-pyrazol-3-yl]-1-(2-methoxyethyl)-1H-1,2,4-triazol-5-yl}pyridin-4-amine] | < 5.00 | 7.92
2 | CCOc1cc(F)c(Cn2nc(-c3cc(Nc4ccncn4)n(CCN4CCOCC4)n3)c(C)c2C2CC2)c(F)c1 [Example 2-1-1, 5′-cyclopropyl-1′-(4-ethoxy-2,6-difluorobenzyl)-4′-methyl-1-[2-(morpholin-4-yl)ethyl]-N-(pyrimidin-4-yl)-1H,1′H-3,3′-bipyrazol-5-amine] | – | 6.17
3 | CCOc1cc(F)c(Cn2nc(-c3nc(Nc4ccncc4)nn3CCOC)c3ccccc32)c(F)c1 [Example 2-5-2, N-{5-[1-(4-ethoxy-2,6-difluorobenzyl)-1H-indazol-3-yl]-1-(2-methoxyethyl)-1H-1,2,4-triazol-3-yl}pyridin-4-amine] | – | 6.22
4 | CCOc1cc(F)c(Cn2nc(-c3nc(Nc4ccncc4)n(CCO)n3)c(C)c2C2CC2)c(F)c1 [Example 2-3-3, 2-{3-[5-cyclopropyl-1-(4-ethoxy-2,6-difluorobenzyl)-4-methyl-1H-pyrazol-3-yl]-5-(pyridin-4-ylamino)-1H-1,2,4-triazol-1-yl}ethanol] | < 5.00 | 7.66
5 | CCOc1cc(F)c(Cn2nc(-c3cc(Nc4ccncn4)n(C)n3)c(C)c2C2CC2)c(F)c1 [Example 2-1-4, 5′-cyclopropyl-1′-(4-ethoxy-2,6-difluorobenzyl)-1,4′-dimethyl-N-(pyrimidin-4-yl)-1H,1′H-3,3′-bipyrazol-5-amine] | – | 7.47
6 | CCOc1cc(F)c(Cn2nc(-c3cc(Nc4ccncn4)n(CC(=O)O)n3)c(C)c2C2CC2)c(F)c1 [Example 2-1-3, [5′-cyclopropyl-1′-(4-ethoxy-2,6-difluorobenzyl)-4′-methyl-5-(pyrimidin-4-ylamino)-1H,1′H-3,3′-bipyrazol-1-yl]acetic acid] | < 5.00 | 5.96
7 | CCOc1cc(F)c(Cn2nc(-c3cc(Nc4ccncn4)n(CCS(C)(=O)=O)n3)c(C)c2C2CC2)c(F)c1 [Example 2-2-1, 5′-cyclopropyl-1′-(4-ethoxy-2,6-difluorobenzyl)-4′-methyl-1-[2-(methylsulfonyl)ethyl]-N-(pyrimidin-4-yl)-1H,1′H-3,3′-bipyrazol-5-amine] | – | ≤ 4.70
8 | Fc1ccccc1Cn1nc(-c2nsc(Nc3ccncc3)n2)c2ccccc21 [Example 2-7-1, N-{3-[1-(2-fluorobenzyl)-1H-indazol-3-yl]-1,2,4-thiadiazol-5-yl}-pyridin-4-amine] | 5.04 | 5.66
9 | CCOc1cc(F)c(Cn2nc(-n3cc(Nc4ccncn4)cn3)c3ccccc32)c(F)c1 [Example 2-6-1, N-{1-[1-(4-ethoxy-2,6-difluorobenzyl)-1H-indazol-3-yl]-1H-pyrazol-4-yl}pyrimidin-4-amine] | < 5.00 | 7.59
10 | CCOc1cc(F)c(Cn2nc(-c3cc(Nc4ccncc4)n(C)n3)c(C)c2C2CC2)c(F)c1 [Example 2-3-1, 5′-cyclopropyl-1′-(4-ethoxy-2,6-difluorobenzyl)-1,4′-dimethyl-N-(pyridin-4-yl)-1H,1′H-3,3′-bipyrazol-5-amine] | 5.46 | 6.41
11 | CCOC(=O)c1cnccc1Nc1nc(-c2nn(Cc3c(F)cc(OCC)cc3F)c(C3CC3)c2C)nn1CCOC [Example 2-4-1, ethyl 4-({3-[5-cyclopropyl-1-(4-ethoxy-2,6-difluorobenzyl)-4-methyl-1H-pyrazol-3-yl]-1-(2-methoxyethyl)-1H-1,2,4-triazol-5-yl}amino)nicotinate] | – | 7.04
12 | CCOc1cc(F)c(Cn2nc(-c3n[nH]c(Nc4ccncc4)n3)c(C)c2C2CC2)c(F)c1 [Example 2-3-4, N-{3-[5-cyclopropyl-1-(4-ethoxy-2,6-difluorobenzyl)-4-methyl-1H-pyrazol-3-yl]-1H-1,2,4-triazol-5-yl}pyridin-4-amine] | – | 7.09
13 | CCOc1cc(F)c(Cn2nc(-c3nc(Nc4ccncc4)n(CCOC)n3)c3ccccc32)c(F)c1 [Example 2-5-1, N-{3-[1-(4-ethoxy-2,6-difluorobenzyl)-1H-indazol-3-yl]-1-(2-methoxyethyl)-1H-1,2,4-triazol-5-yl}pyridin-4-amine] | – | 7.89
14 | CCOc1cc(F)c(Cn2nc(-c3cc(Nc4ccncn4)n(C(C)=O)n3)c(C)c2C2CC2)c(F)c1 [Example 2-1-2, 1-[5′-cyclopropyl-1′-(4-ethoxy-2,6-difluorobenzyl)-4′-methyl-5-(pyrimidin-4-ylamino)-1H,1′H-3,3′-bipyrazol-1-yl]ethanone] | < 5.00 | ≤ 4.70
